These results are taken from article PMC3806051 (Journal of the American Chemical Society, 2013).

This assay addresses recombinant human His-tagged MDM2 protein (residues 1–118) (Homo sapiens, UniProt Q00987). The assay can be described thus: FP-based competitive protein binding assay.
Setting [1] is: FP competitive binding to MDM2, incubation 15 min.
The mark [2] stands for this setting: calculated from IC50, FP competitive binding to MDM2, incubation 15 min.

Where two headings read alike, the source gives them in different places.

Take `CNC(=O)[C@@H]1N[C@H](CC(C)(C)C)[C@]2(C(=O)Nc3cc(Cl)ccc32)[C@H]1c1cccc(Cl)c1F` [4a, (2′R,3S,4′S,5′R)-6-chloro-4′-(3-chloro-2-fluorophenyl)-Nmethyl-2′-neopentyl-2-oxospiro[indoline-3,3′-pyrrolidine]-5′-carboxamide]: the IC50 under setting [1] was determined as 387 ± 39 nM. The Ki under setting [2] was 51.8 ± 4.2 nM.
With `CNC(=O)[C@@H]1N[C@H](CC(C)(C)C)[C@]2(C(=O)Nc3cc(Cl)ccc32)[C@H]1c1cccc(Cl)c1` [2a, (2′R,3S,4′R,5′R)-6-chloro-4′-(3-chlorophenyl)-N-methyl-2′-neopentyl-2-oxospiro[indoline-3,3′-pyrrolidine]-5′-carboxamide], the 50% inhibitory concentration (IC50) was 565 ± 57 nM and the Ki is 76.2 ± 7.7 nM.
Take `CC(C)(C)C[C@@H]1N[C@@H](C(=O)O)[C@H](c2cccc(Cl)c2F)[C@]12C(=O)Nc1cc(Cl)ccc12` [8b, (2′S,3R,4′S,5′R)-6-chloro-4′-(3-chloro-2-fluorophenyl)-2′-neopentyl-2-oxospiro[indoline-3,3′-pyrrolidine]-5′-carboxylic acid]: the half-inhibitory concentration (IC50) stood at 55.1 ± 5.2 nM and the Ki stood at 6.4 ± 0.6 nM.
For `CNC(=O)[C@@H]1N[C@@H](CC(C)(C)C)[C@@]2(C(=O)Nc3cc(Cl)c(F)cc32)[C@H]1c1cccc(Cl)c1` [11b, (2′S,3R,4′R,5′R)-6-chloro-4′-(3-chlorophenyl)-5-fluoro-Nmethyl-2′-neopentyl-2-oxospiro[indoline-3,3′-pyrrolidine]-5′-carboxamide], the IC50 under setting [1] was 112 ± 12 nM. In addition, the Ki under setting [2] is 14.2 ± 1.1 nM.
For `CC(C)(C)C[C@@H]1N[C@@H](C(N)=O)[C@H](c2cccc(Cl)c2F)[C@]12C(=O)Nc1cc(Cl)ccc12` [9b, (2′S,3R,4′S,5′R)-6-chloro-4′-(3-chloro-2-fluorophenyl)-2′-neopentyl-2-oxospiro[indoline-3,3′-pyrrolidine]-5′-carboxamide], the IC50 was determined as 22.5 ± 2.2 nM and the Ki is 1.9 ± 0.2 nM.
For `CCOC(=O)[C@@H]1N[C@@H](CC(C)(C)C)[C@@]2(C(=O)Nc3cc(Cl)ccc32)[C@H]1c1cccc(Cl)c1F` [7b, (2′S,3R,4′S,5′R)-ethyl 6-chloro-4′-(3-chloro-2-fluorophenyl)-2′-neopentyl-2-oxospiro[indoline-3,3′-pyrrolidine]-5′-carboxylate] the same measures were 721 ± 79 nM and 97.5 ± 10.7 nM.
Take `CNC(=O)[C@@H]1N[C@@H](CC(C)(C)C)[C@@]2(C(=O)Nc3cc(Cl)ccc32)[C@H]1c1cccc(Cl)c1F` [4b, (2′S,3R,4′S,5′R)-6-chloro-4′-(3-chloro-2-fluorophenyl)-Nmethyl-2′-neopentyl-2-oxospiro[indoline-3,3′-pyrrolidine]-5′-carboxamide]: the IC50 under setting [1] worked out at 25.9 ± 1.5 nM. The inhibition constant Ki under setting [2] is 2.4 ± 0.2 nM. The “times more potent than the respective isomer a (binding to MDM2)” value (cis-cis isomer b versus trans-cis isomer a) is listed as > 15 times.
As to `CN(C)C(=O)[C@@H]1N[C@@H](CC(C)(C)C)[C@@]2(C(=O)Nc3cc(Cl)c(F)cc32)[C@H]1c1cccc(Cl)c1` [10b, (2′S,3R,4′R,5′R)-6-chloro-4′-(3-chlorophenyl)-5-fluoro-N,Ndimethyl-2′-neopentyl-2-oxospiro[indoline-3,3′-pyrrolidine]-5′-carboxamide], the half-maximal inhibitory concentration (IC50) under setting [1] was determined as 835 ± 121 nM. Further, the Ki under setting [2] was 113 ± 16 nM.
With `CNC(=O)[C@@H]1N[C@@H](CC(C)(C)C)[C@@]2(C(=O)Nc3cc(Cl)ccc32)[C@H]1c1cccc(Cl)c1` [2b, (2′S,3R,4′R,5′R)-6-chloro-4′-(3-chlorophenyl)-N-methyl-2′-neopentyl-2-oxospiro[indoline-3,3′-pyrrolidine]-5′-carboxamide], the IC50 is 30.9 ± 2.9 nM and the Ki stood at 3.1 ± 0.3 nM.
The corresponding values for `CC(C)(C)C[C@H]1N[C@@H](C(=O)O)[C@H](c2cccc(Cl)c2F)[C@@]12C(=O)Nc1cc(Cl)ccc12` [8a, (2′R,3S,4′S,5′R)-6-chloro-4′-(3-chloro-2-fluorophenyl)-2′-neopentyl-2-oxospiro[indoline-3,3′-pyrrolidine]-5′-carboxylic acid] are 498 ± 44 nM and 67 ± 5.9 nM.

As a reminder, the IC50 is the concentration needed to halve the response being measured. As usually defined, the Ki is the dissociation constant of the complex between target and ligand, obtained from inhibition or displacement.
